Assay results from patent US9932522B2, “Electrochromic compound, electrochromic composition, display element, and dimming element” (Ricoh Company, Ltd., priority 2014, dated 2018).

Assay: Solubility evaluation of electrochromic compound
Settings: dissolved to saturation, filtered through 0.5 μm PTFE filter, residue weighed; for Solubility, solvent TFP: 2,2,3,3-tetrafluoropropanol (TFP); for Solubility, solvent DMF: N,N-dimethylformamide (DMF)
Text: The residue was filtered with a PTFE filter having the average pore diameter of 0.5 μm, and the solvent was dried under the reduced pressure. Then, the residue was weight to calculate an amount of the solute dissolved in each solvent.

## O=P(O)(O)CCCCCCCC[n+]1ccc(-c2ccc(-c3nccs3)cc2)cc1.[Br-] [Compound 3b]
  Solubility, solvent TFP: A (the solubility of 5% by mass or greater was attained relative to each solvent)
  Solubility, solvent DMF: A (the solubility of 5% by mass or greater was attained relative to each solvent)

## O=P(O)(O)CCCCCCCC[n+]1ccc(-c2ccc(-c3cncs3)cc2)cc1.[Br-] [Compound 2b]
  Solubility, solvent TFP: A (the solubility of 5% by mass or greater was attained relative to each solvent)
  Solubility, solvent DMF: A (the solubility of 5% by mass or greater was attained relative to each solvent)

## COc1nc(OC)nc(-c2ccc(-c3cc[n+](CCCCCCCCP(=O)(O)O)cc3)cc2)n1.[Br-] [Compound 4b]
  Solubility, solvent TFP: A (the solubility of 5% by mass or greater was attained relative to each solvent)
  Solubility, solvent DMF: A (the solubility of 5% by mass or greater was attained relative to each solvent)

## O=P(O)(O)CCCCCCCC[n+]1ccc(-c2ccc(-c3nc(-c4ccccc4)nc(-c4ccccc4)n3)cc2)cc1.[Br-] [Compound 5b]
  Solubility, solvent TFP: A (the solubility of 5% by mass or greater was attained relative to each solvent)
  Solubility, solvent DMF: A (the solubility of 5% by mass or greater was attained relative to each solvent)

## O=P(O)(O)CCCCCCCC[n+]1cccc(-c2ccc(-c3cccs3)cc2)c1 [Compound 12b]
  Solubility, solvent TFP: A (the solubility of 5% by mass or greater was attained relative to each solvent)
  Solubility, solvent DMF: A (the solubility of 5% by mass or greater was attained relative to each solvent)

## O=P(O)(O)CCCCCCCC[n+]1ccc(-c2ccc(-c3ncccn3)cc2)cc1.[Br-] [Compound 6b]
  Solubility, solvent TFP: A (the solubility of 5% by mass or greater was attained relative to each solvent)
  Solubility, solvent DMF: A (the solubility of 5% by mass or greater was attained relative to each solvent)

## O=P(O)(O)CCCCCCCC[n+]1ccc(-c2ccc(-c3cccs3)cc2)cc1.[Br-] [Compound 1b]
  Solubility, solvent TFP: A (the solubility of 5% by mass or greater was attained relative to each solvent)
  Solubility, solvent DMF: A (the solubility of 5% by mass or greater was attained relative to each solvent)
